Assays:
[1] = tested on: HT-29 human colorectal cancer cells; assay: HT-29 xenograft, 2F8 alone or with CPT-11; format: in vivo, athymic nude (nu/nu) mice; details: 2F8 0.5 mg or 1 mg IP every three days; CPT-11 100 mg/kg IP once a week
Procedure: We were interested to determine if the anti-IGF-IR antibodies were capable of inhibiting human tumor growth in vivo in a nude mouse xenograft model. Tumors were induced in 3-4 week old athymic nude (nu/nu) mice by subcutaneous injection of 2-3 million viable HT-29 human colorectal cancer cells in cell culture medium. The tumors were allowed to establish and antibody treatment started when the tumor volume reached 200 mm^3. Ten animals were injected with tumor cells per treatment group. Antibody was injected intraperitoneally (IP) every three days at 1 mg or 0.5 mg in 0.5 ml TBS. The drug irenotecan (CPT-11) (LKT Laboratories) was injected IP (100 mg/kg) once a week for four weeks from the initiation of antibody treatment. Control animals received a class matched irrelevant human IgG antibody. Tumor measurements were performed at regular intervals using Vernier calipers, measuring height, width, and length and calculated to determine the total tumor volume. The study was terminated when control tumors reached 3000 mm^3.

[2] = tested on: BxPC-3 human pancreatic carcinoma cells; assay: BxPC-3 xenograft, A12 with CPT-11 or gemcitabine; format: in vivo, athymic nu/nu mice; details: for animals with partial tumor regressions: after five weeks of treatment
Procedure: Athymic nu/nu mice were injected subcutaneously with 2×10^6 BxPC-3 human pancreatic carcinoma cells mixed 1:1 with Matrigel. […] All treatments were administered by intraperitoneal injection. Tumor measurements were recorded twice weekly using the formula Volume=(π/6)l×w^2.
At day 18 three animals per group were sacrificed and the tumors resected for midpoint histological evaluation. Treatment and tumor measurements continued on the remaining animals until day 44 with the exception of the TBS group. […] At termination of the study final tumor measurements were recorded, animals sacrificed, and four per group had tumors resected for endpoint histological evaluation.

[3] = tested on: HT-29 human colon carcinoma; assay: HT-29 xenograft, A12 with CPT-11 or paclitaxel; format: in vivo, nu/nu mice; details: for inhibition of growth of HT-29 xenografts compared to TBS control: single agent
Procedure: […] nu/nu mice were injected subcutaneously with HT-29 human colon carcinoma cell suspension, at 5×10^6 cells in 0.4 ml mixed 1:1 with Matrigel. […] All treatments were administered by intraperitoneal injection.
Treatment continued for six weeks and tumor measurements were recorded twice weekly using the formula Volume=(π/6)l×w^2. At day 21 four animals per group were sacrificed and the tumors resected for histological evaluation. Treatment and tumor measurements continued on the remaining animals until day 40. At that time final tumor measurements were recorded, animals sacrificed, and four per group had tumor resected for endpoint histological evaluation.

[4] = day 19, ip, A12 1 mg 3 times per week, irinotecan 1 mg or gemcitabine 2.5 mg every 7 days
[5] = day 12, ip, A12 1 mg 3 times per week, irinotecan 2 mg or paclitaxel 121 μg every 7 days

CCc1c2c(nc3ccc(OC(=O)N4CCC(N5CCCCC5)CC4)cc13)-c1cc3c(c(=O)n1C2)COC(=O)[C@]3(O)CC [CPT-11, irinotecan] was tested, and the “inhibition of tumor growth” value [1] was “responses were similar to treatment with CPT-11 alone”, the “animals with partial tumor regressions” value [2] was “no tumor regressions” and the T/C % [2, 4] was 52%. The T/C % ([2]; day 23, same regimens) was 45%, the T/C % ([2]; day 26, same regimens) was 35% and the T/C % ([2]; day 30, same regimens) was 34%. The T/C % ([2]; day 32, same regimens) was 34%, the T/C % ([2]; day 37, same regimens) was 26% and the T/C % [3, 5] was 63%. The T/C % ([3]; day 15, same regimens) was 59%, the T/C % ([3]; day 19, same regimens) was 61% and the T/C % ([3]; day 22, same regimens) was 52%. It also gave a T/C % ([3]; day 26, same regimens) of 47%, a T/C % ([3]; day 29, same regimens) of 45% and a T/C % ([3]; day 33, same regimens) of 40%. For the same compound, the T/C % ([3]; day 36, same regimens) was 40%, the T/C % ([3]; day 40, same regimens) was 41% and the “inhibition of growth of HT-29 xenografts compared to TBS control” value [3] was “significantly (P<0.02) inhibited”.
With Nc1ccn([C@@H]2O[C@H](CO)[C@@H](O)C2(F)F)c(=O)n1 [Gemcitabine, gemcitabine] the “animals with partial tumor regressions” value [2] was “no tumor regressions”, the “Regressions (individual tumor volumes < day 1 of treatment)” value ([2]; day 19, animals regressing/animals in group) was 0/11 and the T/C % [2, 4] was 68%. The “Regressions (individual tumor volumes < day 1 of treatment)” value ([2]; day 23) was 0/8, the T/C % ([2]; day 23, same regimens) was 65% and the “Regressions (individual tumor volumes < day 1 of treatment)” value ([2]; day 26) was 0/8. For the same compound, the T/C % ([2]; day 26, same regimens) was 58%, the “Regressions (individual tumor volumes < day 1 of treatment)” value ([2]; day 30) was 0/8 and the T/C % ([2]; day 30, same regimens) was 56%. For the same compound, the “Regressions (individual tumor volumes < day 1 of treatment)” value ([2]; day 32) was 0/8, the T/C % ([2]; day 32, same regimens) was 48% and the “Regressions (individual tumor volumes < day 1 of treatment)” value ([2]; day 37) was 0/8. For the same compound, the T/C % ([2]; day 37, same regimens) was 37%, the “Regressions (individual tumor volumes < day 1 of treatment)” value ([2]; day 41) was 0/8 and the “Regressions (individual tumor volumes < day 1 of treatment)” value ([2]; day 44) was 0/7.
CC(=O)O[C@H]1C(=O)[C@@]2(C)[C@H]([C@H](OC(=O)c3ccccc3)[C@]3(O)C[C@H](OC(=O)[C@H](O)[C@@H](NC(=O)c4ccccc4)c4ccccc4)C(C)=C1C3(C)C)[C@]1(OC(C)=O)CO[C@@H]1C[C@@H]2O [paclitaxel] was tested, and the T/C % [3, 5] was 66%, the T/C % ([3]; day 15, same regimens) was 59% and the T/C % ([3]; day 19, same regimens) was 62%. For the same compound, the T/C % ([3]; day 22, same regimens) was 56%, the T/C % ([3]; day 26, same regimens) was 54% and the T/C % ([3]; day 29, same regimens) was 55%. It also gave a T/C % ([3]; day 33, same regimens) of 52%, a T/C % ([3]; day 36, same regimens) of 45% and a T/C % ([3]; day 40, same regimens) of 52%. For the same compound, the “inhibition of growth of HT-29 xenografts compared to TBS control” value [3] was “significantly (P<0.02) inhibited”.

Source: US7968093B2, “Fully human antibodies directed against the human insulin-like growth factor-1 receptor” (ImClone LLC, priority 2003, dated 2011)
